Measurements published in patent US9278940B2, “Cyclic amines as bromodomain inhibitors” (Zenith Epigenetics Corp., priority 2012, dated 2016).
Where a name gives a salt, the structure may show the parent alone.

Experiments:
Brd4 bromodomain 1 = target: T1, Brd4 bromodomain 1 (Homo sapiens, UniProt O60885); assay: Inhibition of tetra-acetylated histone H4 binding to BET bromodomain (TR-FRET); design: key: Active: Compounds with an IC50 value less than 30 μM were deemed to be active.; Not Active: Compounds with an IC50 value less than 30 μM were deemed to be active; settings: Brd4 bromodomain 1, tetra-acetylated histone H4 peptide
T1 construct: made in house; host or cells: E. coli BL21(DE3)
Procedure: Proteins were cloned and overexpressed with a N-terminal 6×His tag, then purified by nickel affinity followed by size exclusion chromatography. Briefly, E. coli BL21(DE3) cells were transformed with a recombinant expression vector encoding N-terminally Nickel affinity tagged bromodomains from Brd2, Brd3, Brd4. Cell cultures were incubated at 37° C. with shaking to the appropriate density and induced overnight with IPTG. The supernatant of lysed cells was loaded onto Ni-IDA column for purification. Eluted protein is pooled, concentrated and further purified by size exclusion chromatography. Fractions representing monomeric protein were pooled, concentrated, aliquoted, and frozen at −80° C. for use in subsequent experiments.
Binding of tetra-acetylated histone H4 and BET bromodomains was confirmed by a Time Resolved Fluorescence Resonance Energy Transfer (TR-FRET) method. N-terminally His-tagged bromodomains (200 nM) and biotinylated tetra-acetylated histone H4 peptide (25-50 nM, Millipore) were incubated in the presence of Europium Cryptate-labeled streptavidin (Cisbio Cat. #610SAKLB) and XL665-labeled monoclonal anti-His antibody (Cisbio Cat. #61HISXLB) in a white 96 well microtiter plate (Greiner). For inhibition assays, serially diluted test compound was added to these reactions in a 0.2% final concentration of DMSO. Final buffer concentrations were 30 mM HEPES pH 7.4, 30 mM NaCl, 0.3 mM CHAPS, 20 mM phosphate pH 7.0, 320 mM KF, 0.08% BSA). After 2 hours incubation at room temperature, the fluorescence by FRET was measured at 665 and 620 nm by a SynergyH4 plate reader (Biotek). The binding inhibitory activity was shown by a decrease in 665 nm fluorescence relative to 620 nm. IC50 values were determined from a dose response curve.

hIL-6 mRNA = assay: Inhibition of hIL-6 mRNA transcription in LPS-stimulated U937 macrophages; format: cell-based, human; design: key: Active: Compounds with an IC50 value less than 30 μM are deemed to be active.; Not Active: Compounds with an IC50 value less than 30 μM are deemed to be active; settings: U937 cells differentiated with PMA, 1 h pretreatment, LPS 3 h
Procedure: In this example, hIL-6 mRNA in tissue culture cells was quantitated to measure the transcriptional inhibition of hIL-6 when treated with a compound of the present disclosure.
A human leukemic monocyte lymphoma cell line (U937) was plated (3.2×10^4 cells per well) in a 96-well plate in […] RPMI-1640 containing 10% FBS and penicillin/streptomycin, and differentiated into macrophages for 3 days in 60 ng/mL PMA ([…]) at 37° C. in 5% CO2 prior to the addition of the compound of interest. The cells were pretreated for 1 h with the test compound prior to stimulation with 1 ug/mL lipopolysaccharide from Escherichia coli. The cells were incubated at 37-C for 3 h before the cells were harvested. At time of harvest, the spent media was removed from the cells and the cells were rinsed in 200 μL PBS. Cell lysis solution (70 μL) was added the cells in each well and incubated for 5-10 min at room temperature, to allow for complete cell lysis and detachment. mRNA was then prepared using the “mRNA Catcher PLUS plate” (Invitrogen), according to the protocol supplied. After the last wash, as much wash buffer as possible was aspirated without allowing the wells to dry. Elution buffer (E3, 70 μL) was then added to each well. mRNA was then eluted by incubating the mRNA Catcher PLUS plate with Elution Buffer for 5 min at 68° C. and then immediately placing the plate on ice.
The eluted mRNA isolated was then used in a one-step quantitative real-time PCR reaction, using components of the Ultra Sense Kit together with Applied Biosystems primer-probe mixes. Real-time PCR data was analyzed, normalizing the Ct values for hIL-6 to an internal control, prior to determining the fold induction of each unknown sample, relative to the control.

c-myc = assay: Inhibition of c-myc expression (mRNA, real-time PCR) in MV4-11 cells; format: cell-based; design: key: Active: Compounds with an IC50 value less than 30 μM were deemed to be active.; Not Active: Compounds with an IC50 value less than 30 μM were deemed to be active; settings: Human AML MV4-11 cells, 3 hours
Procedure: MV4-11 cells (2.5×10^4 cells) were plated in 96 well U-bottom plates with test compound or DMSO (0.1%), and incubated for 3 hours at 37° C. Cells were then harvested by centrifugation, lysed, and mRNA was isolated using the mRNA catcher plus kit (Invitrogen). Reverse transcription of the mRNA and duplex amplification of the c-myc and cyclophilin cDNAs was performed using the RNA Ultrasense kit (Invitrogen) and a ViiA7 real-time PCR machine (Applied Biosystems). IC50 values were determined from a dose response curve.

Human AML MV-4-11 cells = assay: Inhibition of cell proliferation in MV4-11 cells; format: cell-based; design: key: Active: Compounds with an IC50 value less than 30 μM are deemed to be active.; Not Active: Compounds with an IC50 value less than 30 μM are deemed to be active; settings: 72 hours
Procedure: MV4-11 cells: 96-well plates were seeded with 5×10^4 cells per well of exponentially growing human AML MV-4-11 (CRL-9591) cells and immediately treated with two-fold dilutions of test compounds, ranging from 30 μM to 0.2 μM. Triplicate wells were used for each concentration, as well as a media only and three DMSO control wells. The cells and compounds were incubated at 37° C., 5% CO2 for 72 hours before adding 20 μL of the CellTiter Aqueous One Solution (Promega) to each well and incubating at 37° C., 5% CO2 for an additional 3-4 hours. The absorbance was taken at 490 nm in a spectrophotometer and the percentage of proliferation relative to DMSO-treated cells was calculated after correction from the blank well. IC50 were calculated using the GraphPad Prism software.

hApoA-1 mRNA = assay: Up-regulation of hApoA-1 mRNA transcription in Huh7 cells; format: cell-based, human; design: key: Active: Compounds with an EC170 value less than 30 μM are deemed to be active.; Not Active: Compounds with an EC170 value less than 30 μM are deemed to be active; settings: 48 hrs treatment, ApoA-I mRNA
Procedure: In this example, ApoA-I mRNA in tissue culture cells was quantitated to measure the transcriptional up-regulation of ApoA-I when treated with a compound of the present disclosure.
Huh7 cells ([…] per well) were plated in a 96-well plate using 100 μL DMEM per well, (Gibco DMEM supplemented with penicillin/streptomycin and 10% FBS), 24 h before the addition of the compound of interest. After 48 hrs treatment, the spent media was removed from the Huh-7 cells and placed on ice (for immediate use) or at −80° C. (for future use) with the “LDH cytotoxicity assay Kit II” from Abcam. The cells remaining in the plate were rinsed with 100 μL PBS.
Then 85 μL of cell lysis solution was added to each well and incubated for 5-10 minutes at room temperature, to allow for complete cell lysis and detachment. mRNA was then prepared using the “mRNA Catcher PLUS plate” from Life Technologies, according to the protocol supplied. After the last wash, as much wash buffer as possible was aspirated without allowing the wells to dry. Elution Buffer (E3, 80 μL) was then added to each well. mRNA was then eluted by incubating the mRNA Catcher PLUS plate with Elution Buffer for 5 minutes at 68° C., and then 1 minute at 4° C. Catcher plates with mRNA eluted were kept on ice for use or stored at −80° C.
The eluted mRNA isolated was then used in a one-step real-time PCR reaction, using components of the Ultra Sense Kit together with Life Technologies primer-probe mixes. Real-time PCR data was analyzed, using the Ct values, to determine the fold induction of each unknown sample, relative to the control (that is, relative to the control for each independent DMSO concentration).
Compounds with an EC170 value less than 30 μM are deemed to be active.

SMILES | melting point | FRET activity (IC50 < 30 μM) (Brd4 bromodomain 1) | IL-6 activity (IC50 < 30 μM) (hIL-6 mRNA) | c-myc activity (IC50 < 30 μM) (c-myc) | cell proliferation activity (IC50 < 30 μM) (Human AML MV-4-11 cells) | ApoA-1 activity (EC170 < 30 μM) (hApoA-1 mRNA)
COc1cc(OC)c2c(=O)[nH]c(-c3ccc(OCCO)c(N4CCN(C(C)C)CC4)n3)nc2c1 (as salt: acetate) [Example 13, 2-(5-(2-Hydroxyethoxy)-6-(4-isopropylpiperazin-1-yl)pyridin-2-yl)-5,7-dimethoxyquinazolin-4(3H)-one acetate] | 138 to 139 °C | – | – | – | – | –
COc1cc(OC)c2c(=O)[nH]c(-c3ccc(OCCNC(C)C)c(N4CCN(C(C)C)CC4)n3)nc2c1 (as salt: trifluoroacetate) [Example 12, 2-(5-(2-(Isopropylamino)ethoxy)-6-(4-isopropylpiperazin-1-yl)pyridin-2-yl)-5,7-dimethoxyquinazolin-4(3H)-one bis(trifluoroacetate)] | 186 to 188 °C | – | – | – | – | –
COC(=O)CN1CCN(c2cccc(-c3nc4cc(OC)cc(OC)c4c(=O)[nH]3)n2)CC1 [Example 7, Methyl 2-(4-(6-(5,7-dimethoxy-4-oxo-3,4-dihydroquinazolin-2-yl)pyridin-2-yl)piperazin-1-yl)acetate] | 176 to 177 °C | Active | Active | – | – | –
COc1cc(OC)c2c(=O)[nH]c(-c3cccc(N4CCN(C)CC4)n3)nc2c1 [Example 15, 5,7-Dimethoxy-2-(6-(4-methylpiperazin-1-yl)pyridin-2-yl)quinazolin-4(3H)-one Hydrochloride] | – | Active | Active | Active | Active | Active
CCC(=O)N1CCN(c2cccc(-c3nc4cc(OC)cc(OC)c4c(=O)[nH]3)n2)CC1 [Example 19, 5,7-Dimethoxy-2-(6-(4-propionylpiperazin-1-yl)pyridin-2-yl)quinazolin-4(3H)-one dihydrochloride] | – | Active | Not Active | Not Active | Not Active | Active
COc1cc(OC)c2c(=O)[nH]c(-c3cc(Cl)cc(N4CCNCC4)c3)nc2c1 [Example 31, 2-(3-Chloro-5-(piperazin-1-yl)phenyl)-5,7-dimethoxyquinazolin-4(3H)-one] | – | Active | Active | Active | Active | Active

Now from value to compound, other results behind:

melting point | FRET activity (IC50 < 30 μM) (Brd4 bromodomain 1) | IL-6 activity (IC50 < 30 μM) (hIL-6 mRNA) | c-myc activity (IC50 < 30 μM) (c-myc) | cell proliferation activity (IC50 < 30 μM) (Human AML MV-4-11 cells) | SMILES | ApoA-1 activity (EC170 < 30 μM) (hApoA-1 mRNA)
225 °C (dec.) | Active | Not Active | – | – | COc1cc(OC)c2c(=O)[nH]c(-c3cccc(N4CCN(CC(=O)O)CC4)n3)nc2c1 [Example 10, 2-(4-(6-(5,7-Dimethoxy-4-oxo-3,4-dihydroquinazolin-2-yl)pyridin-2-yl)piperazin-1-yl)acetic acid] | –
– | Active | Not Active | Active | Active | COc1cc(OC)c2c(=O)[nH]c(-c3ccc(OCCNC(C)C)c(N4CCN(C(C)C)CC4)n3)nc2c1 [Example 12, 2-(5-(2-(Isopropylamino)ethoxy)-6-(4-isopropylpiperazin-1-yl)pyridin-2-yl)-5,7-dimethoxyquinazolin-4(3H)-one bis(trifluoroacetate)] | Active
– | Active | Active | Active | Not Active | COc1cc(OC)c2c(=O)[nH]c(-c3ccc(OCCO)c(N4CCN(C(C)C)CC4)n3)nc2c1 [Example 13, 2-(5-(2-Hydroxyethoxy)-6-(4-isopropylpiperazin-1-yl)pyridin-2-yl)-5,7-dimethoxyquinazolin-4(3H)-one acetate] | Active
– | Active | Active | Active | Active | COc1cc(OC)c2c(=O)[nH]c(-c3cccc(N4CCC(N(C)C)CC4)n3)nc2c1 [Example 29, 2-(6-(4-(Dimethylamino)piperidin-1-yl)pyridin-2-yl)-5,7-dimethoxyquinazolin-4(3H)-one] | Active
– | Active | Active | Active | Active | COc1cc(OC)c2c(=O)[nH]c(-c3cc(Cl)cc(N4CCN(C(C)C)CC4)c3)nc2c1 [Example 32, 2-(3-Chloro-5-(4-isopropylpiperazin-1-yl)phenyl)-5,7-dimethoxyquinazolin-4(3H)-one] | Active
